Measurements from BindingDB's records for patent US20260034094 (Kojin Therapeutics, 2026).

The compounds below were run against T1, Glutamate--cysteine ligase catalytic subunit (Homo sapiens, UniProt P48506) (assay: GCL Enzyme Profiling Assay).
T1 sequence (P48506 whole entry): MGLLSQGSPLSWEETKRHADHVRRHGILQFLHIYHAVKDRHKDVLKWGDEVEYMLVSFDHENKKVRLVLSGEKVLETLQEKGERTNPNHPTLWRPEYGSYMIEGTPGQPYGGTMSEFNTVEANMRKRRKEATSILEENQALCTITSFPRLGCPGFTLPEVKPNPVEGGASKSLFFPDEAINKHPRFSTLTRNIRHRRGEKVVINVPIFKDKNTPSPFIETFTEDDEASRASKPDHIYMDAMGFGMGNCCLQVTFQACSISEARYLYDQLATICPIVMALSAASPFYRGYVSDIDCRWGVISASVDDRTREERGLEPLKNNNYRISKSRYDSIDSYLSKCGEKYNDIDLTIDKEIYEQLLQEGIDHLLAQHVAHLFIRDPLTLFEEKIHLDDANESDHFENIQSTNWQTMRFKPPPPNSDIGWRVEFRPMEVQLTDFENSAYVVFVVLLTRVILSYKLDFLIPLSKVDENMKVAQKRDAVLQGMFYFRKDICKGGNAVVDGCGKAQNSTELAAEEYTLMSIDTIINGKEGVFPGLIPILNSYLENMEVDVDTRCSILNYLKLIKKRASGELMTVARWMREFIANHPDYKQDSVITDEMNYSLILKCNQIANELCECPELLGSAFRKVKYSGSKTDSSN
Protocol: Compound in pure DMSO was stamped in assay plates (Greiner black 384-well) or appropriate containers using a D300e digital dispenser (TECAN) and the final DMSO concentration was normalized to 1%. A 5 mL, or in the present case, 5 μL mixture of human recombinant GCL (final concentration: 5 nM) and ATP (final concentration: 0.6 mM) was added and the solution was incubated at room temperature (22° C.) for 1 h. […] The reaction was stopped after 1 h or in the present case, 2 h by addition of 5 mL, or in the present case, 5 μL ADP GLO Reagent (Promega). The resulting solution was incubated for 2 h at room temperature. This was then followed by addition of 5 mL, or in the present case, 5 μL ADP GLO Detection. After incubation at room temperature for 30 min, the plates were read on a plate reader (PheraStar) using a luminescence protocol to quantify the GCL enzyme activity from each reaction solution.

Which IC50 does the source give for Cc1ccc(-c2ccc(C(CCS(=N)(=O)CC[C@H](N)C(=O)O)C(F)(F)F)cc2)c(Cl)c1 (stereo partly specified) [US20260034094, Compound 279] here?
The IC50 was less than 20 µM.

For Cc1cc(Cl)ccc1-c1ccc(C(O)(CCS(=N)(=O)CC[C@H](N)C(=O)O)C(F)(F)F)cc1 (stereo partly specified) [US20260034094, Compound 430], which IC50 is on record?
Its IC50 is less than 20 µM.

For Cc1ccccc1-c1ccc(C(CCS(=N)(=O)CC[C@H](N)C(=O)O)C(F)(F)F)cc1 (stereo partly specified) [US20260034094, Compound 265], which IC50 is on record?
Its IC50 is less than 20 µM.

Which IC50 does the source give for CN1CCN(c2ccc(-c3ccc(C(CCS(=N)(=O)CC[C@H](N)C(=O)O)C(F)(F)F)cc3)cn2)CC1 (stereo partly specified) [US20260034094, Compound 249] here?
The IC50 was less than 20 µM.

For N=S(=O)(CC[C@H](N)C(=O)O)CCC1(c2ccc(Oc3ccc(Cl)cc3Cl)cc2)CCC1 (stereo partly specified) [US20260034094, Compound 403], which IC50 is on record?
Its IC50 is less than 20 µM.

For N=S(=O)(CCC(c1ccc(-c2cn[nH]c2)cc1)C(F)(F)F)CC[C@H](N)C(=O)O (stereo partly specified) [US20260034094, Compound 227], which IC50 is on record?
Its IC50 is less than 20 µM.

For N=S(=O)(CCC(c1ccc(-c2ccc(Br)cc2)cc1)C(F)(F)F)CC[C@H](N)C(=O)O (stereo partly specified) [US20260034094, Compound 226], which IC50 is on record?
The IC50 was less than 20 µM.

With N=S(=O)(CC[C@H](N)C(=O)O)CCC(O)(c1cccc(-c2ccccc2)c1)C(F)(F)F (stereo partly specified) [US20260034094, Compound 435] as the compound, how does the IC50 read?
Its IC50 is less than 20 µM.

Which IC50 does the source give for N=S(=O)(CCC(c1ccc(-c2ccc(Cl)cc2O)cc1)C(F)(F)F)CC[C@H](N)C(=O)O (stereo partly specified) [US20260034094, Compound 282] here?
Its IC50 is less than 20 µM.

How did the IC50 turn out when N=S(=O)(CC[C@H](N)C(=O)O)CCC(O)(c1ccc(Oc2ccc(Cl)cc2Cl)cc1)C(F)(F)F (stereo partly specified) [US20260034094, Compound 342] was run?
Its IC50 is less than 20 µM.

CC(C)(C)CCS(=N)(=O)CC[C@H](N)C(=O)Nc1nccs1 (stereo partly specified) [US20260034094, Compound 121] was tested. Which IC50 did it give?
The IC50 was greater than 2000 µM.

How did the IC50 turn out when N=S(=O)(CCC(c1ccccn1)C(F)(F)F)CC[C@H](N)C(=O)O (stereo partly specified) [US20260034094, Compound 313] was run?
The IC50 was less than 20 µM.

Cn1ncc(-c2ccc(C(O)(CCS(=N)(=O)CC[C@H](N)C(=O)O)C(F)(F)F)cc2)cc1=O (stereo partly specified) [US20260034094, Compound 433] was tested. Which IC50 did it give?
Its IC50 is less than 20 µM.

With N=S(=O)(CCc1cccc(Cl)c1F)CC[C@H](N)C(=O)O (stereo partly specified) [US20260034094, Compound 28] as the compound, how does the IC50 read?
The IC50 was less than 20 µM.

COc1ccc(-c2ccc(C(CCS(=N)(=O)CC[C@H](N)C(=O)O)C(F)(F)F)cc2)c(Cl)c1 (stereo partly specified) [US20260034094, Compound 268] was tested. Which IC50 did it give?
The IC50 was less than 20 µM.

With N=S(=O)(CCC(c1ccc2[nH]nnc2c1)C(F)(F)F)CC[C@H](N)C(=O)O (stereo partly specified) [US20260034094, Compound 393] as the compound, how does the IC50 read?
The IC50 was less than 20 µM.

N=S(=O)(CCC(c1ccc(-c2ccsc2)cc1)C(F)(F)F)CC[C@H](N)C(=O)O (stereo partly specified) [US20260034094, Compound 257] was tested. Which IC50 did it give?
The IC50 was less than 20 µM.

With N=S(=O)(CCC(c1ccc(-c2ccc(Cl)cc2Cl)cc1)C(F)(F)F)CC[C@H](N)C(=O)O (stereo partly specified) [US20260034094, Compound 269] as the compound, how does the IC50 read?
The IC50 was less than 20 µM.

CC(C)(O)c1ccc(C(CCS(=N)(=O)CC[C@H](N)C(=O)O)C(F)(F)F)cc1 (stereo partly specified) [US20260034094, Compound 263] was tested. Which IC50 did it give?
The IC50 was less than 20 µM.

How did the IC50 turn out when Cc1cc(Cl)ccc1-c1cnc(C(O)(CCS(=N)(=O)CC[C@H](N)C(=O)O)C(F)(F)F)nc1 (stereo partly specified) [US20260034094, Compound 474] was run?
The IC50 was less than 20 µM.

For N[C@@H](CCS(=O)(=O)CCC(O)(c1ncc(-c2ccc(Cl)cc2Cl)cn1)C(F)(F)F)C(=O)O (stereo partly specified) [US20260034094, Compound 470], which IC50 is on record?
The IC50 was less than 20 µM.

For N=S(=O)(CCC(c1ccc(-c2ccccc2)cc1Cl)C(F)(F)F)CC[C@H](N)C(=O)O (stereo partly specified) [US20260034094, Compound 315], which IC50 is on record?
The IC50 was less than 20 µM.

For N=S(=O)(CC[C@H](N)C(=O)O)CCC(O)(c1ccc(C2CCCCC2)cn1)C(F)(F)F (stereo partly specified) [US20260034094, Compound 476], which IC50 is on record?
The IC50 was less than 20 µM.

Cc1ccccc1-c1ccc(C(O)(CCS(=N)(=O)CC[C@H](N)C(=O)O)C(F)(F)F)nc1 (stereo partly specified) [US20260034094, Compound 471] was tested. Which IC50 did it give?
Its IC50 is less than 20 µM.

With N=S(=O)(CCC(c1ccccc1O)C(F)(F)F)CC[C@H](N)C(=O)O (stereo partly specified) [US20260034094, Compound 397] as the compound, how does the IC50 read?
Its IC50 is less than 20 µM.

For C=C(C)c1ccc(C(CCS(=N)(=O)CC[C@H](N)C(=O)O)C(F)(F)F)cc1 (stereo partly specified) [US20260034094, Compound 262], which IC50 is on record?
Its IC50 is less than 20 µM.

Which IC50 does the source give for N=S(=O)(CC[C@H](N)C(=O)O)CCC(O)(c1ncc(-c2ccc(Cl)cc2Cl)cn1)C(F)(F)F (stereo partly specified) [US20260034094, Compound 462] here?
The IC50 was less than 20 µM.

N=S(=O)(CCC(c1ccc(-c2ccc(F)cc2Cl)cc1)C(F)(F)F)CC[C@H](N)C(=O)O (stereo partly specified) [US20260034094, Compound 271] was tested. Which IC50 did it give?
The IC50 was less than 20 µM.

With N=S(=O)(CCC(c1ccc(-c2ccoc2)cc1)C(F)(F)F)CC[C@H](N)C(=O)O (stereo partly specified) [US20260034094, Compound 258] as the compound, how does the IC50 read?
Its IC50 is less than 20 µM.

CNC(=O)c1cccc(-c2ccc(C(CCS(=N)(=O)CC[C@H](N)C(=O)O)C(F)(F)F)cc2)c1 (stereo partly specified) [US20260034094, Compound 230] was tested. Which IC50 did it give?
The IC50 was less than 20 µM.

For N=S(=O)(CC[C@H](N)C(=O)O)CCC(O)([C@H]1CC[C@H](c2ccc(Cl)cc2Cl)CC1)C(F)(F)F (stereo partly specified) [US20260034094, Compound 340], which IC50 is on record?
Its IC50 is less than 20 µM.

With N=S(=O)(CCC(c1ccc(-c2ccc(O)cc2Cl)cc1)C(F)(F)F)CC[C@H](N)C(=O)O (stereo partly specified) [US20260034094, Compound 270] as the compound, how does the IC50 read?
Its IC50 is less than 20 µM.

N=S(=O)(CCC(c1ccc(-c2ccccc2O)cc1)C(F)(F)F)CC[C@H](N)C(=O)O (stereo partly specified) [US20260034094, Compound 235] was tested. Which IC50 did it give?
Its IC50 is less than 20 µM.

How did the IC50 turn out when C#Cc1ccc(C(CCS(=N)(=O)CC[C@H](N)C(=O)O)C(F)(F)F)cc1 (stereo partly specified) [US20260034094, Compound 272] was run?
Its IC50 is less than 20 µM.

Which IC50 does the source give for Cc1nc(Cl)ccc1-c1ccc(C(CCS(=N)(=O)CC[C@H](N)C(=O)O)C(F)(F)F)cc1 (stereo partly specified) [US20260034094, Compound 248] here?
The IC50 was less than 20 µM.

For Cc1ccccc1-c1ccc(C(O)(CCS(=N)(=O)CC[C@H](N)C(=O)O)C(F)(F)F)cc1 (stereo partly specified) [US20260034094, Compound 429], which IC50 is on record?
Its IC50 is less than 20 µM.

Which IC50 does the source give for N=S(=O)(CC[C@H](N)C(=O)O)CCC(O)([C@H]1CC[C@@H](c2ccc(Cl)cc2Cl)CC1)C(F)(F)F (stereo partly specified) [US20260034094, Compound 341] here?
The IC50 was less than 20 µM.

With N=S(=O)(CCC(c1ccc(-c2ccc3cn[nH]c3c2)cc1)C(F)(F)F)CC[C@H](N)C(=O)O (stereo partly specified) [US20260034094, Compound 255] as the compound, how does the IC50 read?
The IC50 was less than 20 µM.

N=S(=O)(CCC(c1ccc(-c2cccc(C(N)=O)c2)cc1)C(F)(F)F)CC[C@H](N)C(=O)O (stereo partly specified) [US20260034094, Compound 229] was tested. Which IC50 did it give?
The IC50 was less than 20 µM.

Which IC50 does the source give for N=S(=O)(CCC(c1ccc(-c2cc[nH]n2)cc1)C(F)(F)F)CC[C@H](N)C(=O)O (stereo partly specified) [US20260034094, Compound 228] here?
The IC50 was less than 20 µM.

N=S(=O)(CCC(c1ccc(-c2cnc3[nH]ncc3c2)cc1)C(F)(F)F)CC[C@H](N)C(=O)O (stereo partly specified) [US20260034094, Compound 254] was tested. Which IC50 did it give?
Its IC50 is less than 20 µM.

For N=S(=O)(CCC(c1ccc(-c2ccc(Cl)cc2Cl)cn1)C(F)(F)F)CC[C@H](N)C(=O)O (stereo partly specified) [US20260034094, Compound 317], which IC50 is on record?
The IC50 was less than 20 µM.

With N=S(=O)(CCC(c1ccc(-c2cccnc2)cc1)C(F)(F)F)CC[C@H](N)C(=O)O (stereo partly specified) [US20260034094, Compound 243] as the compound, how does the IC50 read?
The IC50 was less than 20 µM.

With N=S(=O)(CCC(c1cccc2ccccc12)C(F)(F)F)CC[C@H](N)C(=O)O (stereo partly specified) [US20260034094, Compound 311] as the compound, how does the IC50 read?
Its IC50 is less than 20 µM.

For Cc1ccc(-c2cccc(C(CCS(=N)(=O)CC[C@H](N)C(=O)O)C(F)(F)F)c2)cc1 (stereo partly specified) [US20260034094, Compound 285], which IC50 is on record?
The IC50 was less than 20 µM.

N=S(=O)(CC[C@H](N)C(=O)O)CCC(O)(c1ccn(-c2ccc(Cl)cc2Cl)n1)C(F)(F)F (stereo partly specified) [US20260034094, Compound 336] was tested. Which IC50 did it give?
Its IC50 is less than 20 µM.
